Measured values taken from PubChem BioAssay AID1918957 (Molecular Pharmacology Branch, DTP, NCI, 2023).

Test system: NCI-H1876 complex spheroid viability
Assay: Anticancer human tumor NCI-H1876 cell line growth inhibition [LSD1];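 also: spheroids exposed to compounds for one week before readout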;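 as to viability, T/C: 100% = DMSO vehicle-treated spheroids so lower means fewer viable cells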
Details: for IC50: curve of first compound; for viability, T/C: stronger effect = lower value
How it was run: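 Multicellular complex spheroids of tumor cells with human endothelial cells (HUVEC) and mesenchymal stem cells; the LSD1 inhibitor iadademstat was combined with standard-of-care or investigational agents. Top concentration at or near clinical Cmax, half-log dilutions; final DMSO ≤0.25%.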

[1] = second compound 0.1 µM, first compound 0.0316 µM
[2] = second compound 0.1 µM, first compound 0.1 µM
[3] = second compound 0.1 µM, first compound 0.316 µM
[4] = second compound 0.1 µM, first compound 1 µM
[5] = second compound 0.1 µM, first compound 3.16 µM
[6] = second compound 0.1 µM, first compound 10 µM
[7] = second compound 0.316 µM, first compound 0.0316 µM
[8] = second compound 0.316 µM, first compound 0.1 µM
[9] = second compound 0.316 µM, first compound 0.316 µM
[10] = second compound 0.316 µM, first compound 1 µM
[11] = second compound 0.316 µM, first compound 3.16 µM
[12] = second compound 0.316 µM, first compound 10 µM
[13] = second compound 1 µM, first compound 0.0316 µM
[14] = second compound 1 µM, first compound 0.1 µM
[15] = second compound 1 µM, first compound 0.316 µM
[16] = second compound 1 µM, first compound 1 µM
[17] = second compound 1 µM, first compound 3.16 µM
[18] = second compound 1 µM, first compound 10 µM
[19] = second compound 3.16 µM, first compound 0.0316 µM
[20] = second compound 3.16 µM, first compound 0.1 µM
[21] = second compound 3.16 µM, first compound 0.316 µM
[22] = second compound 3.16 µM, first compound 1 µM
[23] = second compound 3.16 µM, first compound 3.16 µM
[24] = second compound 3.16 µM, first compound 10 µM
[25] = second compound 10 µM, first compound 0.0316 µM
[26] = second compound 10 µM, first compound 0.1 µM
[27] = second compound 10 µM, first compound 0.316 µM
[28] = second compound 10 µM, first compound 1 µM
[29] = second compound 10 µM, first compound 3.16 µM
[30] = second compound 10 µM, first compound 10 µM
[31] = second compound 0.1 µM, first compound 0.00316 µM
[32] = second compound 0.1 µM, first compound 0.01 µM
[33] = second compound 0.316 µM, first compound 0.00316 µM
[34] = second compound 0.316 µM, first compound 0.01 µM
[35] = second compound 1 µM, first compound 0.00316 µM
[36] = second compound 1 µM, first compound 0.01 µM
[37] = second compound 3.16 µM, first compound 0.00316 µM
[38] = second compound 3.16 µM, first compound 0.01 µM
[39] = second compound 10 µM, first compound 0.00316 µM
[40] = second compound 10 µM, first compound 0.01 µM

Row | SMILES | IC50 (second compound 0.1 µM) [nM] | IC50 (second compound 0.316 µM) [nM] | IC50 (second compound 1 µM) [nM] | IC50 (second compound 3.16 µM) [nM] | IC50 (second compound 10 µM) [nM] | viability, T/C [1] [%] | viability, T/C [2] [%] | viability, T/C [3] [%] | viability, T/C [4] [%] | viability, T/C [7] [%] | viability, T/C [8] [%] | viability, T/C [9] [%] | viability, T/C [10] [%] | viability, T/C [13] [%] | viability, T/C [14] [%] | viability, T/C [15] [%] | viability, T/C [16] [%] | viability, T/C [19] [%] | viability, T/C [20] [%] | viability, T/C [21] [%] | other results
1 | CC(C)c1c(-c2ccccc2)nc2c(C#N)c[nH]n2c1=O + NC1CCC(NC2CC2c2ccccc2)CC1 | 7010 | 7170 | 6830 | 6120 | 6210 | 100 | 97.1 | 109 | 97 | 90.2 | 106 | 103 | 88.9 | 97.1 | 101 | 99.8 | 95.1 | 99 | 106 | 102 | viability, T/C [5]: 94.2%; viability, T/C [6]: 30.1%; viability, T/C [11]: 93.1%; viability, T/C [12]: 32.4%; viability, T/C [17]: 89.7%; viability, T/C [18]: 30.7%; viability, T/C [22]: 92%; viability, T/C [23]: 88.2%; viability, T/C [24]: 22.5%; viability, T/C [25]: 89.4%; viability, T/C [26]: 93.6%; viability, T/C [27]: 92.6%; viability, T/C [28]: 99.3%; viability, T/C [29]: 90.5%; viability, T/C [30]: 21.3%
2 | CC1COCCN1c1cc(-c2ccnn2C)c2ccnc(-c3ccn[nH]3)c2n1 (stereo not given) + NC1CCC(NC2CC2c2ccccc2)CC1 | 19.9 | 21.9 | 19.1 | 18.7 | 9.68 | 34.9 | 25.3 | 23.4 | 12.1 | 35.7 | 28.7 | 11 | 21.8 | 35.9 | 15.2 | 11.6 | 12.7 | 36 | 16 | 12.4 | viability, T/C [31]: 86.9%; viability, T/C [32]: 70.5%; viability, T/C [33]: 83.5%; viability, T/C [34]: 79.7%; viability, T/C [35]: 80.5%; viability, T/C [36]: 68.3%; viability, T/C [37]: 77.4%; viability, T/C [38]: 66.8%; viability, T/C [22]: 12.7%; viability, T/C [39]: 64.5%; viability, T/C [40]: 50.2%; viability, T/C [25]: 31.1%; viability, T/C [26]: 19.9%; viability, T/C [27]: 16.7%; viability, T/C [28]: 11.4%
3 | COc1ccc([C@@H](O)c2cc(-c3ncnc4cc(N5CCOCC5)ccc34)c(F)cc2Cl)nn1 + NC1CCC(NC2CC2c2ccccc2)CC1 | 3070 | 3490 | 3780 | 3480 | 3130 | 109 | 97.4 | 109 | 91.2 | 112 | 105 | 95.8 | 85.3 | 113 | 107 | 99.7 | 84.7 | 113 | 113 | 94.3 | viability, T/C [5]: 49.2%; viability, T/C [6]: 23.4%; viability, T/C [11]: 50.7%; viability, T/C [12]: 21.3%; viability, T/C [17]: 53.9%; viability, T/C [18]: 24.5%; viability, T/C [22]: 76.4%; viability, T/C [23]: 54.2%; viability, T/C [24]: 21.9%; viability, T/C [25]: 101%; viability, T/C [26]: 110%; viability, T/C [27]: 94.2%; viability, T/C [28]: 70.9%; viability, T/C [29]: 53.3%; viability, T/C [30]: 26%
4 | O=C(C=Cn1cnc(-c2cc(C(F)(F)F)cc(C(F)(F)F)c2)n1)NNc1cnccn1 + NC1CCC(NC2CC2c2ccccc2)CC1 | 91.4 | 81.9 | 83.5 | 75.1 | 65.2 | 90.2 | 46.7 | 23.5 | 23.2 | 87.2 | 42.1 | 22.4 | 20.3 | 86.9 | 43.1 | 22.9 | 20.6 | 85.8 | 38.1 | 23.2 | viability, T/C [31]: 98.9%; viability, T/C [32]: 91.6%; viability, T/C [33]: 104%; viability, T/C [34]: 96.6%; viability, T/C [35]: 94.4%; viability, T/C [36]: 96%; viability, T/C [37]: 93.8%; viability, T/C [38]: 90.9%; viability, T/C [22]: 20.6%; viability, T/C [39]: 94.4%; viability, T/C [40]: 89.1%; viability, T/C [25]: 75.7%; viability, T/C [26]: 35.1%; viability, T/C [27]: 19.3%; viability, T/C [28]: 19.8%
